The target of the assay is T1, IRP1 (Mus musculus, UniProt P28271).
T1 sequence (P28271 1-889): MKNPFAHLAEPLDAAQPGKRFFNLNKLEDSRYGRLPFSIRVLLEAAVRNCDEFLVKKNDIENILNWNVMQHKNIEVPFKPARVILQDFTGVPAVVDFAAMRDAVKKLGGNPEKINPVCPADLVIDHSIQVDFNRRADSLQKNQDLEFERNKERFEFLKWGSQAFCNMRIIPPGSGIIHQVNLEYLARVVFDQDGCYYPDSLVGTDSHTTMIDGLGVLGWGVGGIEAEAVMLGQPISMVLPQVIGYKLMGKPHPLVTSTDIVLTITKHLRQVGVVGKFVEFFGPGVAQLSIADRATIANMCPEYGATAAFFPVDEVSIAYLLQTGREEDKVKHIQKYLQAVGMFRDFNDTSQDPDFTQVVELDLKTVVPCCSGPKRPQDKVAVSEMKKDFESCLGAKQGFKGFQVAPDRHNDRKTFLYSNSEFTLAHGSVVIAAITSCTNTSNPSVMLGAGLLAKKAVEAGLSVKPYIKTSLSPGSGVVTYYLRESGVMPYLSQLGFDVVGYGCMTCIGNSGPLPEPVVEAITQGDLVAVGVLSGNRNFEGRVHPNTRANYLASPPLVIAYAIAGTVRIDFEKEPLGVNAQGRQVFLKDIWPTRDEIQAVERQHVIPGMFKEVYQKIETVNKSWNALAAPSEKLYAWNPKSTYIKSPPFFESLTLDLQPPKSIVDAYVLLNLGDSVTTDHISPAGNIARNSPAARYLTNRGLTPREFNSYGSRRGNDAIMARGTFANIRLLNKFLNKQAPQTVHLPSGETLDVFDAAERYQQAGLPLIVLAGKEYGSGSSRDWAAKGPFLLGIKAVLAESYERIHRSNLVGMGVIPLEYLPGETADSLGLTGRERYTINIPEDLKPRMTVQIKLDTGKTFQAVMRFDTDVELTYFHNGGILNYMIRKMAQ
In words: IRE binding activity of IRP1 in brain-region lysates of IRP2−/− mice (gel-shift). It counts as in vivo. Also noted: Lysates made from various brain regions of IRP2−/− mice; from tissue; host or cells: mouse brain (cerebellum, forebrain, brain-stem) lysates. Particulars: lysates from cerebellum, brain-stem and forebrain of IRP2−/− mice, Tempo1 diet vs control diet. Here is the method: Diet: The mice were weaned 3-4 weeks after their birth. Immediately after weaning, mice were maintained on either a Tempo1-supplemented or control diet. In the Tempo1-supplemented diet, powdered Tempo1 was uniformly mixed with bacon-flavored mouse chow by a “cold press” technique (Bio-Serv, Frenchtown, N.J., USA) at a concentration of 10 mg/g of food. Bacon-flavored chow without Tempo1 was used as the control diet.
Tissue and lysate preparation: Animals were euthanized and tissues were frozen in liquid nitrogen immediately after harvesting, and stored at −80° C. under argon. Experiments were performed on tissues that were pulverized in liquid N2-cooled mortars in an anaerobic chamber, and then lysed in lysis buffer that was deaerated by cyclic freezethaw and air-removal with argon. […]
Lysates made from various brain regions of IRP2−/− mice that were maintained on a control diet or on a Tempo1-supplemented diet were analyzed for IRE binding activity of IRP1 and for TfR1, IRP1, and actin protein levels by gel-shift assay and Western blot. […] FIG. 3b is a quantification of the results as intensity of the bands relative to the control, represented here as 100%. Quantification was performed with the IQMac (IRP1 activity) or NIH Image (protein levels) program. Error bars represent the standard deviation calculated from the results of two different sets of animals.

Regarding `CC1(C)CC(O)CC(C)(C)N1[O]` [Tempo1], the IRE-binding activity result is recorded as “markedly increased”.

For the origin of these results see patent US20100179188A1, “NITROXIDE RADICAL AS TREATMENT FOR NEURODEGENERATION” (Office of Technology Transfer, NIH, priority 2007, published 2010).
